Activity calls are given as the source filed them. The rule behind the calls is not given here.
System: not listed separately
Test: (§1) Induction of mitochondrial uncoupled respiration in rat L6 myoblasts assessed as increase in oxygen consumption rate at 50 uM measured by Agilent Seahorse XF analyzer
Format: functional

| Compound | Activity |
| --- | --- |
| Cn1c(C(F)(F)F)nc2nc(Nc3cc(C(F)(F)F)ccc3F)c(Nc3cc(C(F)(F)F)ccc3F)nc21 | >200% |
| Cc1ccc(Nc2nc3[nH]c(C(F)(F)F)nc3nc2Nc2ccccc2F)cc1 | 50% |
| Fc1cccc(Nc2nc3[nH]c(C(F)(F)F)nc3nc2Nc2ccccc2F)c1 | 150% |
| FC(F)(F)c1cc(Nc2nc3nc(C(F)(F)F)[nH]c3nc2Nc2cc(C(F)(F)F)cc(C(F)(F)F)c2)cc(C(F)(F)F)c1 | 100% |
| Fc1ccccc1Nc1nc2nc(C(F)(F)F)[nH]c2nc1Nc1ccccc1F | 150% |
| Fc1ccccc1Nc1nc2nc(C(F)(F)F)[nH]c2nc1Nc1ccccc1 | 50% |
| Fc1ccccc1Nc1nc2nc(C(F)(F)F)[nH]c2nc1NC1CCCCC1 | 125% |
| Cn1c(C(F)(F)F)nc2nc(Nc3cc(C(F)(F)F)cc(C(F)(F)F)c3)c(Nc3cc(C(F)(F)F)cc(C(F)(F)F)c3)nc21 | >300% |

System: L6
Test: as §1
Format: functional

| Compound | Activity |
| --- | --- |
| Cc1ccc(Nc2nc3nc(C(F)(F)F)[nH]c3nc2Nc2ccc(C)cc2)cc1 | Active |
| FC(F)(F)c1nc2nc(Nc3ccccc3)c(Nc3ccccc3)nc2[nH]1 | Active |

System: not listed separately
Test: Induction of mitochondrial uncoupled respiration in rat L6 myoblasts assessed as increase in oxygen consumption rate measured by Agilent Seahorse XF analyzer
Format: functional, cell-based

| EC50 | Compound |
| --- | --- |
| 4.3 µM | Oc1nc2nonc2nc1Nc1ccc(OC(F)(F)F)cc1 |

System: not listed separately
Test: Induction of mitochondrial uncoupled respiration in rat L6 myoblasts assessed as increase in oxygen consumption rate at 10 uM measured by Agilent Seahorse XF analyzer
Format: functional

| Compound | Activity |
| --- | --- |
| Fc1cccc(Nc2nc3[nH]c(C(F)(F)F)nc3nc2Nc2ccccc2F)c1 | 100% |
| Fc1ccc(C(F)(F)F)cc1Nc1nc2nc(C(F)(F)F)[nH]c2nc1Nc1cc(C(F)(F)F)ccc1F | 100% |
| Fc1ccccc1Nc1nc2nc(C(F)(F)F)[nH]c2nc1Nc1ccccc1F | 50% |
| Fc1cccc(Nc2nc3nc(C(F)(F)F)[nH]c3nc2Nc2cccc(F)c2F)c1F | >150% |
| FC(F)(F)c1nc2nc(Nc3ccccc3C(F)(F)F)c(Nc3ccccc3C(F)(F)F)nc2[nH]1 | >150% |
| Fc1c(Nc2nc3nc(C(F)(F)F)[nH]c3nc2Nc2cccc(C(F)(F)F)c2F)cccc1C(F)(F)F | >150% |
| Cn1c(C(F)(F)F)nc2nc(Nc3cc(C(F)(F)F)cc(C(F)(F)F)c3)c(Nc3cc(C(F)(F)F)cc(C(F)(F)F)c3)nc21 | 100% |

Reference: ChEMBL document CHEMBL5107991, “Conversion of oxadiazolo[3,4-b]pyrazines to imidazo[4,5-b]pyrazines via a tandem reduction-cyclization sequence generates new mitochondrial uncouplers” (Bioorg Med Chem Lett, 2022)
